Values of other authors in paper PMC7605553 (bioRxiv, 2020).
Where a name gives a salt, the structure may show the parent alone.

Test system: SARS-CoV-2
Conditions: read-out: EC50 for inhibition of SARS-CoV-2 infection; Calu-3 cells

For `CN(C)C(=O)COC(=O)Cc1ccc(OC(=O)c2ccc(NC(=N)N)cc2)cc1` [camostat mesylate], the EC50 is given as 1 µM.
